In PubChem BioAssay (NCI):
Values joined by “and” are separate entries in the source; they are usually repeats but may differ in a detail not shown here. Equal entries are not always repeated.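 Exposure lasted 48 hours, with cells grown in 96-well plates and compounds tested at five concentrations. Definition used: TGI = concentration required for complete inhibition of growth.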

Each compound was assayed on DLD-1 colon (assay: inhibition of tumour cell growth, NCI panel, 48 h).

| SMILES | TGI |
| --- | --- |
| CC(C)N(C(=O)C12C3C4C5(C#N)C3C1(C#N)C5C42I)C(C)C (centres undefined) | > 60.9 µM |
| C=COCCCOc1ccccc1 | > 100 µM |
| COc1ccc2c3c([nH]c2c1[N+](=O)[O-])C(C)=NCC3 | > 100 µM |
| C=C(c1nc2ccc(Cl)cc2[nH]c1=O)C(O)c1ccc(C(O)C(=O)c2nc3ccc(Cl)cc3[nH]c2=O)cc1 (centres undefined) | > 100 µM |
| CC(C)(C)CC(C)(C)c1cc2c(O)c(c1)Cc1cc(C(C)(C)CC(C)(C)C)cc(c1O)Cc1cc(C(C)(C)CC(C)(C)C)cc(c1O)Cc1cc(C(C)(C)CC(C)(C)C)cc(c1O)C2 | > 100 µM |
| Cc1cc([N+](=O)[O-])ccc1Nc1cccc(Cl)c1C | 33.5 µM |
| CC1=C(C(=O)Nc2ccccc2)C(c2ccccc2)C(C(=O)Nc2ccccc2)=C(C)N1 | > 100 µM |
| Cc1nn(-c2ccccc2)c2nc(N3CCOCC3)nnc12 | > 100 µM |
| CNC(=O)N(C)N=NCCCl | > 100 µM |
| CCOc1ccccc1C=C1c2ccccc2C(=O)c2ccccc21 | > 100 µM |
| O=C(CCn1[nH]c(=O)c(Cl)c(Cl)c1=O)NO | > 100 µM |
| [N-]=[N+]=NC12CC3C4CC5CC3C(C1)C(C5)C4C2 | > 100 µM |
| CN(C)c1nc2ccccc2[nH]1 | > 100 µM |
| NNC(=S)N/N=C(\CC1OC(=O)c2ccccc21)c1ccccc1O (centres undefined) | > 100 µM |
| COC(=O)C1=C(O)c2cc(OC)c(OC)cc2C(c2ccc(OC)c(OC)c2)C1 (centres undefined) | > 100 µM |
| O=C1c2cccc(NCCCNCCO)c2C(=O)c2cccc(NCCCNCCO)c21 | 12 µM and 6.25 µM |
| COC1(OC)CC2C(=O)N(Cc3ccccc3)C1C(S(=O)(=O)c1ccccc1)C2S(=O)(=O)c1ccccc1 (centres undefined) | 13.3 µM |
| Cc1cc(CC(O)c2ccc(Cl)c(Cl)c2)nc(=O)[nH]1 (centres undefined) | > 100 µM |
| COC(=O)C(=Cc1cc(OC)ccc1OC)C(=O)OC | 91.3 µM |
| CC1=NNC(=O)C2CCC(=O)N12 (centres undefined) | > 100 µM |
| CC(C)c1ccccc1NC(=O)CCc1n[nH]c(=S)o1 | > 89.2 µM |
| COC(=O)c1cc2c(s1)C(=O)c1ccccc1-2 | > 100 µM |
| Cn1c2c(c3ccccc31)C1CCCCCCC1C1C(=O)OC(=O)C21 (centres undefined) | > 100 µM |
| Cc1ccc(S(=O)(=O)N(CC(=O)O)c2ccccc2)cc1 | > 100 µM |
| COc1ccc(C(=O)C(c2ccc(OC)cc2)C2(O)C(=O)Nc3ccc([N+](=O)[O-])cc32)cc1 (centres undefined) | > 100 µM |
| O=C(/C=C/c1ccccc1O)c1ccccc1O | > 100 µM |
| N#CC(N)(C(=O)CCC(=O)Nc1cccc(Cl)c1)c1ccc(Cl)cc1 (centres undefined) | > 100 µM |
| CC(CCC=O)CCOCc1ccccc1 (centres undefined) | > 100 µM |
| S=C(Nc1ccccc1)N(/N=C/C=C/c1ccccc1)c1nnc(-c2ccccc2)c(-c2ccccc2)n1 | > 100 µM |

What follows are compounds tested on DMS 273 small cell lung (assay: inhibition of tumour cell growth, NCI panel, 48 h).

| SMILES | TGI |
| --- | --- |
| CC(C)N(C(=O)C12C3C4C5(C#N)C3C1(C#N)C5C42I)C(C)C (centres undefined) | > 60.9 µM |
| C=COCCCOc1ccccc1 | > 100 µM |
| COc1ccc2c3c([nH]c2c1[N+](=O)[O-])C(C)=NCC3 | > 100 µM |
| C=C(c1nc2ccc(Cl)cc2[nH]c1=O)C(O)c1ccc(C(O)C(=O)c2nc3ccc(Cl)cc3[nH]c2=O)cc1 (centres undefined) | > 100 µM |
| CC(C)(C)CC(C)(C)c1cc2c(O)c(c1)Cc1cc(C(C)(C)CC(C)(C)C)cc(c1O)Cc1cc(C(C)(C)CC(C)(C)C)cc(c1O)Cc1cc(C(C)(C)CC(C)(C)C)cc(c1O)C2 | > 100 µM |
| Cc1cc([N+](=O)[O-])ccc1Nc1cccc(Cl)c1C | 28.5 µM |
| CC1=C(C(=O)Nc2ccccc2)C(c2ccccc2)C(C(=O)Nc2ccccc2)=C(C)N1 | > 100 µM |
| Cc1nn(-c2ccccc2)c2nc(N3CCOCC3)nnc12 | > 100 µM |
| CNC(=O)N(C)N=NCCCl | > 100 µM |
| CCOc1ccccc1C=C1c2ccccc2C(=O)c2ccccc21 | 15.7 µM |
| O=C(CCn1[nH]c(=O)c(Cl)c(Cl)c1=O)NO | > 100 µM |
| [N-]=[N+]=NC12CC3C4CC5CC3C(C1)C(C5)C4C2 | > 100 µM |
| CN(C)c1nc2ccccc2[nH]1 | > 100 µM |
| NNC(=S)N/N=C(\CC1OC(=O)c2ccccc21)c1ccccc1O (centres undefined) | > 100 µM |
| COC(=O)C1=C(O)c2cc(OC)c(OC)cc2C(c2ccc(OC)c(OC)c2)C1 (centres undefined) | > 100 µM |
| O=C1c2cccc(NCCCNCCO)c2C(=O)c2cccc(NCCCNCCO)c21 | 3.98 µM and 5.13 µM |
| COC1(OC)CC2C(=O)N(Cc3ccccc3)C1C(S(=O)(=O)c1ccccc1)C2S(=O)(=O)c1ccccc1 (centres undefined) | 27.7 µM |
| COC(=O)C(=Cc1cc(OC)ccc1OC)C(=O)OC | > 100 µM |
| CC1=NNC(=O)C2CCC(=O)N12 (centres undefined) | > 100 µM |
| CC(C)c1ccccc1NC(=O)CCc1n[nH]c(=S)o1 | > 90.7 µM |
| CCCCC(C(=O)C(=O)NC1C2CC3CC(C2)CC1C3)C(=O)C(C)C (centres undefined) | > 100 µM |
| COC(=O)c1cc2c(s1)C(=O)c1ccccc1-2 | > 100 µM |
| Cn1c2c(c3ccccc31)C1CCCCCCC1C1C(=O)OC(=O)C21 (centres undefined) | 42.7 µM |
| Cc1ccc(S(=O)(=O)N(CC(=O)O)c2ccccc2)cc1 | > 100 µM |
| COc1ccc(C(=O)C(c2ccc(OC)cc2)C2(O)C(=O)Nc3ccc([N+](=O)[O-])cc32)cc1 (centres undefined) | > 100 µM |
| O=C(/C=C/c1ccccc1O)c1ccccc1O | > 100 µM |
| N#CC(N)(C(=O)CCC(=O)Nc1cccc(Cl)c1)c1ccc(Cl)cc1 (centres undefined) | > 100 µM |
| CC(CCC=O)CCOCc1ccccc1 (centres undefined) | > 100 µM |
| S=C(Nc1ccccc1)N(/N=C/C=C/c1ccccc1)c1nnc(-c2ccccc2)c(-c2ccccc2)n1 | > 100 µM |

These compounds were tested on HOP-18 NSCLC (assay: inhibition of tumour cell growth, NCI panel, 48 h).

| SMILES | TGI [µM] |
| --- | --- |
| CC(C)N(C(=O)C12C3C4C5(C#N)C3C1(C#N)C5C42I)C(C)C (centres undefined) | > 100 |
| C=COCCCOc1ccccc1 | > 100 |
| Cc1cc([N+](=O)[O-])ccc1Nc1cccc(Cl)c1C | 29.6 |
| CC1=C(C(=O)Nc2ccccc2)C(c2ccccc2)C(C(=O)Nc2ccccc2)=C(C)N1 | > 100 |
| O=C(CCn1[nH]c(=O)c(Cl)c(Cl)c1=O)NO | > 100 |
| [N-]=[N+]=NC12CC3C4CC5CC3C(C1)C(C5)C4C2 | > 100 |
| CN(C)c1nc2ccccc2[nH]1 | > 100 |
| NNC(=S)N/N=C(\CC1OC(=O)c2ccccc21)c1ccccc1O (centres undefined) | > 100 |
| COC(=O)C1=C(O)c2cc(OC)c(OC)cc2C(c2ccc(OC)c(OC)c2)C1 (centres undefined) | > 100 |
| O=C1c2cccc(NCCCNCCO)c2C(=O)c2cccc(NCCCNCCO)c21 | 7.69 |
| COC1(OC)CC2C(=O)N(Cc3ccccc3)C1C(S(=O)(=O)c1ccccc1)C2S(=O)(=O)c1ccccc1 (centres undefined) | 31 |
| CC1=NNC(=O)C2CCC(=O)N12 (centres undefined) | > 100 |
| CC(C)c1ccccc1NC(=O)CCc1n[nH]c(=S)o1 | > 100 |
| CCCCC(C(=O)C(=O)NC1C2CC3CC(C2)CC1C3)C(=O)C(C)C (centres undefined) | > 100 |
| COC(=O)c1cc2c(s1)C(=O)c1ccccc1-2 | > 100 |
| Cn1c2c(c3ccccc31)C1CCCCCCC1C1C(=O)OC(=O)C21 (centres undefined) | > 100 |
| Cc1ccc(S(=O)(=O)N(CC(=O)O)c2ccccc2)cc1 | > 100 |
| N#CC(N)(C(=O)CCC(=O)Nc1cccc(Cl)c1)c1ccc(Cl)cc1 (centres undefined) | > 100 |
| CC(CCC=O)CCOCc1ccccc1 (centres undefined) | > 100 |

These compounds were tested on KM20L2 colon (assay: inhibition of tumour cell growth, NCI panel, 48 h).

| SMILES | TGI |
| --- | --- |
| CC(C)N(C(=O)C12C3C4C5(C#N)C3C1(C#N)C5C42I)C(C)C (centres undefined) | > 100 µM |
| C=COCCCOc1ccccc1 | > 100 µM |
| COc1ccc2c3c([nH]c2c1[N+](=O)[O-])C(C)=NCC3 | > 100 µM |
| C=C(c1nc2ccc(Cl)cc2[nH]c1=O)C(O)c1ccc(C(O)C(=O)c2nc3ccc(Cl)cc3[nH]c2=O)cc1 (centres undefined) | > 100 µM |
| CC(C)(C)CC(C)(C)c1cc2c(O)c(c1)Cc1cc(C(C)(C)CC(C)(C)C)cc(c1O)Cc1cc(C(C)(C)CC(C)(C)C)cc(c1O)Cc1cc(C(C)(C)CC(C)(C)C)cc(c1O)C2 | > 100 µM |
| Cc1cc([N+](=O)[O-])ccc1Nc1cccc(Cl)c1C | 29.8 µM |
| CC1=C(C(=O)Nc2ccccc2)C(c2ccccc2)C(C(=O)Nc2ccccc2)=C(C)N1 | > 100 µM |
| Cc1nn(-c2ccccc2)c2nc(N3CCOCC3)nnc12 | > 100 µM |
| CNC(=O)N(C)N=NCCCl | > 100 µM |
| O=C(CCn1[nH]c(=O)c(Cl)c(Cl)c1=O)NO | > 100 µM |
| CN(C)c1nc2ccccc2[nH]1 | > 100 µM |
| NNC(=S)N/N=C(\CC1OC(=O)c2ccccc21)c1ccccc1O (centres undefined) | > 100 µM |
| COC(=O)C1=C(O)c2cc(OC)c(OC)cc2C(c2ccc(OC)c(OC)c2)C1 (centres undefined) | > 100 µM |
| O=C1c2cccc(NCCCNCCO)c2C(=O)c2cccc(NCCCNCCO)c21 | 6.72 µM and 9.95 µM |
| COC1(OC)CC2C(=O)N(Cc3ccccc3)C1C(S(=O)(=O)c1ccccc1)C2S(=O)(=O)c1ccccc1 (centres undefined) | 31.4 µM |
| Cc1cc(CC(O)c2ccc(Cl)c(Cl)c2)nc(=O)[nH]1 (centres undefined) | > 100 µM |
| CC1=NNC(=O)C2CCC(=O)N12 (centres undefined) | > 100 µM |
| CC(C)c1ccccc1NC(=O)CCc1n[nH]c(=S)o1 | > 100 µM |
| CCCCC(C(=O)C(=O)NC1C2CC3CC(C2)CC1C3)C(=O)C(C)C (centres undefined) | > 100 µM |
| COC(=O)c1cc2c(s1)C(=O)c1ccccc1-2 | > 100 µM |
| Cc1ccc(S(=O)(=O)N(CC(=O)O)c2ccccc2)cc1 | > 100 µM |
| COc1ccc(C(=O)C(c2ccc(OC)cc2)C2(O)C(=O)Nc3ccc([N+](=O)[O-])cc32)cc1 (centres undefined) | > 100 µM |
| O=C(/C=C/c1ccccc1O)c1ccccc1O | > 100 µM |
| N#CC(N)(C(=O)CCC(=O)Nc1cccc(Cl)c1)c1ccc(Cl)cc1 (centres undefined) | > 100 µM |
| CC(CCC=O)CCOCc1ccccc1 (centres undefined) | > 100 µM |
| S=C(Nc1ccccc1)N(/N=C/C=C/c1ccccc1)c1nnc(-c2ccccc2)c(-c2ccccc2)n1 | > 100 µM |

What follows are compounds tested on M19-MEL melanoma (assay: inhibition of tumour cell growth, NCI panel, 48 h).

| SMILES | TGI [µM] |
| --- | --- |
| CC(C)N(C(=O)C12C3C4C5(C#N)C3C1(C#N)C5C42I)C(C)C (centres undefined) | > 100 |
